We go through 31 compounds from patent US20250186437A1, “CARBOLINE COMPOUNDS AND USE THEREOF” (PTC Therapeutics, Inc., priority 2021, published 2025).

This test has as its system MOLM-13 cells. In words: MOLM-13 Cell Proliferation Assay (indicator of DHODH inhibition). Format: cell-based. Conditions: Homo sapiens, 72 Hours of culture, CellTiter-Glo, no uridine. A digest of the protocol: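 Proliferation readout via CellTiter-Glo luminescence after 72 h compound treatment (37 °C, 5% CO2, 0.5% DMSO) of MOLM-13 cells seeded at 10^4 per well in RPMI 1640/10% FBS, used as a DHODH-inhibition indicator since these cells rely on de novo pyrimidine synthesis.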
For orientation: Cellular ATP, detected with luciferase, serves as a proxy for viable cell number.
The IC50 is the midpoint of a concentration-inhibition curve. A higher IC50 goes with lower potency. For the compound `Fc1cc2[nH]c3c(c2cc1Cl)CCN(c1ncc(Cl)cn1)C3c1ccc(C(F)(F)F)cc1` (stereo not shown) [Compound 80, 6-chloro-2-(5-chloropyrimidin-2-yl)-7-fluoro-1-[4-(trifluoromethyl)phenyl]-2,3,4,9-tetrahydro-1H-pyrido[3,4-b]indole], the IC50 came out at 31 nM.

As to `Cc1ccnc(N2CCc3c([nH]c4cc(F)c(Cl)cc34)C2c2ccc(C(F)(F)F)cc2)n1` (stereo not shown) [Compound 81, 6-chloro-7-fluoro-2-(4-methylpyrimidin-2-yl)-1-[4-(trifluoromethyl)phenyl]-2,3,4,9-tetrahydro-1H-pyrido[3,4-b]indole], the IC50 was 40.1 nM.

For the compound `Cc1ccc(C2c3[nH]c4ccc(F)c(F)c4c3CCN2c2ncc(F)cn2)cc1` (stereo not shown) [Compound 82, 5,6-difluoro-2-(5-fluoropyrimidin-2-yl)-1-(4-methylphenyl)-2,3,4,9-tetrahydro-1H-pyrido[3,4-b]indole], the concentration for half-maximal inhibition (IC50) was 86.5 nM.

As to `Fc1ccc(C2c3[nH]c4ccc(F)c(F)c4c3CCN2c2ncc(F)cn2)cc1` (stereo not shown) [Compound 83, 5,6-difluoro-1-(4-fluorophenyl)-2-(5-fluoropyrimidin-2-yl)-2,3,4,9-tetrahydro-1H-pyrido[3,4-b]indole], the midpoint of inhibition, the IC50, lay at 259 nM.

Regarding `Cc1ccc(C2c3[nH]c4ccc(F)c(F)c4c3CCN2c2ncc(Cl)cn2)cc1` (stereo not shown) [Compound 84, 2-(5-chloropyrimidin-2-yl)-5,6-difluoro-1-(4-methylphenyl)-2,3,4,9-tetrahydro-1H-pyrido[3,4-b]indole], it took 65.6 nM to reach half-maximal inhibition (IC50).

The compound `Fc1ccc(C2c3[nH]c4ccc(F)c(F)c4c3CCN2c2ncc(Cl)cn2)cc1` (stereo not shown) [Compound 85, 2-(5-chloropyrimidin-2-yl)-5,6-difluoro-1-(4-fluorophenyl)-2,3,4,9-tetrahydro-1H-pyrido[3,4-b]indole] displayed an IC50 of 162 nM.

With `COC(=O)c1ccnc(N2CCc3c([nH]c4ccc(Cl)c(F)c34)C2c2ccc(Cl)cc2)n1` (stereo not shown) [Compound 87, methyl 2-[6-chloro-1-(4-chlorophenyl)-5-fluoro-1,3,4,9-tetrahydro-2H-pyrido[3,4-b]indol-2-yl]pyrimidine-4-carboxylate], it took 7.9 nM to reach half-maximal inhibition (IC50).

`Cc1cc(C(F)(F)F)nc(N2CCc3c([nH]c4cc(F)c(Cl)cc34)C2c2ccc(C#N)cc2)n1` (stereo not shown) [Compound 88, 4-{6-chloro-7-fluoro-2-[4-methyl-6-(trifluoromethyl)pyrimidin-2-yl]-2,3,4,9-tetrahydro-1H-pyrido[3,4-b]indol-1-yl}benzonitrile] had an IC50 of 2.3 nM. Compared with the last compound, the IC50 is about 3.4-fold lower.

On to `N#Cc1ccc(C2c3[nH]c4ccc(Cl)c(F)c4c3CCN2c2nccc(C(F)(F)F)n2)cc1` (stereo not shown) [Compound 89, 4-{6-chloro-5-fluoro-2-[4-(trifluoromethyl)pyrimidin-2-yl]-2,3,4,9-tetrahydro-1H-pyrido[3,4-b]indol-1-yl}benzonitrile], for which 5.7 nM corresponded to half-maximal inhibition (IC50).

The compound `Cc1ccnc(N2CCc3c([nH]c4ccc(Cl)c(F)c34)C2c2ccc(F)cc2)n1` (stereo not shown) [Compound 90, 6-chloro-5-fluoro-1-(4-fluorophenyl)-2-(4-methylpyrimidin-2-yl)-2,3,4,9-tetrahydro-1H-pyrido[3,4-b]indole] had an IC50 of 29.1 nM. This IC50 lies about 5.1-fold higher than the previous one.

The compound `Cc1ncc(C2c3[nH]c4cc(F)c(Cl)cc4c3CCN2c2ncc(F)cn2)cn1` (stereo not shown) [Compound 91, 6-chloro-7-fluoro-2-(5-fluoropyrimidin-2-yl)-1-(2-methylpyrimidin-5-yl)-2,3,4,9-tetrahydro-1H-pyrido[3,4-b]indole] showed an IC50 of 89.9 nM.

As for `Cc1ncc(C2c3[nH]c4cc(F)c(Cl)cc4c3CCN2c2nccc(C(F)(F)F)n2)cn1` (stereo not shown) [Compound 92, 6-chloro-7-fluoro-1-(2-methylpyrimidin-5-yl)-2-[4-(trifluoromethyl)pyrimidin-2-yl]-2,3,4,9-tetrahydro-1H-pyrido[3,4-b]indole], the IC50 is 34.6 nM. Compared with the last compound, the IC50 is about 2.6-fold lower.

`Cc1cc(C)nc(N2CCc3c([nH]c4cc(F)c(Cl)cc34)C2c2ccc(C#N)cc2)n1` (stereo not shown) [Compound 93, 4-[6-chloro-2-(4,6-dimethylpyrimidin-2-yl)-7-fluoro-2,3,4,9-tetrahydro-1H-pyrido[3,4-b]indol-1-yl]benzonitrile]: the IC50 stood at 9.7 nM. This IC50 lies about 3.6-fold lower than the previous one.

`Cc1ccnc(N2CCc3c([nH]c4cc(F)c(Cl)cc34)C2c2cnc(N(C)C)nc2)n1` (stereo not shown) [Compound 94, 5-[6-chloro-7-fluoro-2-(4-methylpyrimidin-2-yl)-2,3,4,9-tetrahydro-1H-pyrido[3,4-b]indol-1-yl]-N,N-dimethylpyrimidin-2-amine] returned an IC50 of 22.2 nM.

Regarding `CN(C)c1ncc(C2c3[nH]c4cc(F)c(Cl)cc4c3CCN2c2nccc(C(F)(F)F)n2)cn1` (stereo not shown) [Compound 95, 5-{6-chloro-7-fluoro-2-[4-(trifluoromethyl)pyrimidin-2-yl]-2,3,4,9-tetrahydro-1H-pyrido[3,4-b]indol-1-yl}-N,N-dimethylpyrimidin-2-amine], the half-inhibitory concentration (IC50) turned out to be 4.6 nM.

On to `Cc1ccc(C2c3[nH]c4cc(F)c(Cl)cc4c3CCN2c2nc(C)cc(C(F)(F)F)n2)cc1` (stereo not shown) [Compound 96, 6-chloro-7-fluoro-1-(4-methylphenyl)-2-[4-methyl-6-(trifluoromethyl)pyrimidin-2-yl]-2,3,4,9-tetrahydro-1H-pyrido[3,4-b]indole], for which the concentration for half-maximal inhibition (IC50) stood at 1.9 nM. Compared with the last compound, the IC50 is about 2.4-fold lower.

As to `Cc1ccc(C2c3[nH]c4cc(F)c(Cl)cc4c3CCN2c2ncc(C(F)(F)F)cn2)cc1` (stereo not shown) [Compound 97, 6-chloro-7-fluoro-1-(4-methylphenyl)-2-[5-(trifluoromethyl)pyrimidin-2-yl]-2,3,4,9-tetrahydro-1H-pyrido[3,4-b]indole], 15.3 nM corresponded to half-maximal inhibition (IC50).

In the case of `Fc1ccc(C2c3[nH]c4cc(F)c(Cl)cc4c3CCN2c2ncc(C(F)(F)F)cn2)cc1` (stereo not shown) [Compound 98, 6-chloro-7-fluoro-1-(4-fluorophenyl)-2-[5-(trifluoromethyl)pyrimidin-2-yl]-2,3,4,9-tetrahydro-1H-pyrido[3,4-b]indole], it took 41.6 nM to reach half-maximal inhibition (IC50).

For the compound `CC(C)c1ccc(C2c3[nH]c4cc(F)c(Cl)cc4c3CCN2c2ncc(C(F)(F)F)cn2)cc1` (stereo not shown) [Compound 99, 6-chloro-7-fluoro-1-[4-(propan-2-yl)phenyl]-2-[5-(trifluoromethyl)pyrimidin-2-yl]-2,3,4,9-tetrahydro-1H-pyrido[3,4-b]indole], the half-maximal inhibitory concentration (IC50) came to 14 nM.

In the case of `N#Cc1ccc(C2c3[nH]c4cc(F)c(Cl)cc4c3CCN2c2nccc(C(F)(F)F)n2)cc1` (stereo not shown) [Compound 100, 4-{6-chloro-7-fluoro-2-[4-(trifluoromethyl)pyrimidin-2-yl]-2,3,4,9-tetrahydro-1H-pyrido[3,4-b]indol-1-yl}benzonitrile], half-maximal inhibition (IC50) was put at 6.4 nM.

As to `Cc1ncc(C2c3[nH]c4cc(F)c(Cl)cc4c3CCN2c2ncc(Cl)cn2)cn1` (stereo not shown) [Compound 101, 6-chloro-2-(5-chloropyrimidin-2-yl)-7-fluoro-1-(2-methylpyrimidin-5-yl)-2,3,4,9-tetrahydro-1H-pyrido[3,4-b]indole], the IC50 stood at 110 nM.

For the compound `CN(C)c1ncc(C2c3[nH]c4cc(F)c(Cl)cc4c3CCN2c2ncc(Cl)cn2)cn1` (stereo not shown) [Compound 102, 5-[6-chloro-2-(5-chloropyrimidin-2-yl)-7-fluoro-2,3,4,9-tetrahydro-1H-pyrido[3,4-b]indol-1-yl]-N,N-dimethylpyrimidin-2-amine], the IC50 was 19.6 nM.

In turn, `COC(=O)c1ccnc(N2CCc3c([nH]c4ccc(Cl)c(F)c34)C2c2ccc(C#N)cc2)n1` (stereo not shown) [Compound 104, methyl 2-[6-chloro-1-(4-cyanophenyl)-5-fluoro-1,3,4,9-tetrahydro-2H-pyrido[3,4-b]indol-2-yl]pyrimidine-4-carboxylate] had an IC50 of 30.4 nM.

As to `Cc1nc(N2CCc3c([nH]c4cc(F)c(Cl)cc34)C2c2ccc(F)cc2)ncc1F` (stereo not shown) [Compound 105, 6-chloro-7-fluoro-2-(5-fluoro-4-methylpyrimidin-2-yl)-1-(4-fluorophenyl)-2,3,4,9-tetrahydro-1H-pyrido[3,4-b]indole], the IC50 amounted to 23.3 nM. This IC50 and that of the compound before are within 1.5-fold of each other.

In the case of `CS(=O)(=O)c1ccc(C2c3[nH]c4cc(F)c(Cl)cc4c3CCN2c2ncc(F)cn2)cc1` (stereo not shown) [Compound 107, 6-chloro-7-fluoro-2-(5-fluoropyrimidin-2-yl)-1-[4-(methanesulfonyl)phenyl]-2,3,4,9-tetrahydro-1H-pyrido[3,4-b]indole], the IC50 was found to be 44.6 nM. Compared with the last compound, the IC50 is about 1.9-fold higher.

Turning to `Cc1ccc(C2c3[nH]c4ccc(Cl)c(F)c4c3CCN2c2ncc(F)c(C)n2)cc1` (stereo not shown) [Compound 109, 6-chloro-5-fluoro-2-(5-fluoro-4-methylpyrimidin-2-yl)-1-(4-methylphenyl)-2,3,4,9-tetrahydro-1H-pyrido[3,4-b]indole], the concentration for half-maximal inhibition (IC50) came out at 5.6 nM.

Turning to `Cc1ccc(C2c3[nH]c4ccc(Cl)c(F)c4c3CCN2c2nc(C)cc(C#N)n2)cc1` (stereo not shown) [Compound 110, 2-[6-chloro-5-fluoro-1-(4-methylphenyl)-1,3,4,9-tetrahydro-2H-pyrido[3,4-b]indol-2-yl]-6-methylpyrimidine-4-carbonitrile], half-maximal inhibition (IC50) required 2.8 nM.

Turning to `Cc1cc(C#N)nc(N2CCc3c([nH]c4ccc(Cl)c(F)c34)C2c2ccc(F)cc2)n1` (stereo not shown) [Compound 111, 2-[6-chloro-5-fluoro-1-(4-fluorophenyl)-1,3,4,9-tetrahydro-2H-pyrido[3,4-b]indol-2-yl]-6-methylpyrimidine-4-carbonitrile], the IC50 amounted to 8.1 nM. Compared with the last compound, the IC50 is about 2.9-fold higher.

On to `Cc1nc(N2CCc3c([nH]c4cc(F)c(Cl)cc34)C2c2cccc(F)c2F)nc(C)c1F` (stereo not shown) [Compound 112, 6-chloro-1-(2,3-difluorophenyl)-7-fluoro-2-(5-fluoro-4,6-dimethylpyrimidin-2-yl)-2,3,4,9-tetrahydro-1H-pyrido[3,4-b]indole], for which the IC50 came to 3.8 nM.

As for `Cc1nc(N2CCc3c([nH]c4ccc(Cl)c(F)c34)C2c2cccc(F)c2F)ncc1F` (stereo not shown) [Compound 113, 6-chloro-1-(2,3-difluorophenyl)-5-fluoro-2-(5-fluoro-4-methylpyrimidin-2-yl)-2,3,4,9-tetrahydro-1H-pyrido[3,4-b]indole], inhibition was half-maximal at 2.6 nM (IC50).

As for `Cc1ccc(C2c3[nH]c4ccc(Cl)c(F)c4c3CCN2c2ncc(F)c(C)n2)c(F)c1F` (stereo not shown) [Compound 114, 6-chloro-1-(2,3-difluoro-4-methylphenyl)-5-fluoro-2-(5-fluoro-4-methylpyrimidin-2-yl)-2,3,4,9-tetrahydro-1H-pyrido[3,4-b]indole], the IC50 worked out at 1.1 nM.
